Measured values from patent US8609608B2, “Antimicrobial peptides” (C3 Jian, Inc., priority 2007, dated 2013).
Where no end group is shown, it is not given here.

What was measured:
[1] = tested on: S. mutans
[2] = tested on: S. sanguinis NY101; format: cell-based, Streptococcus sanguinis
Experimental: (§1) S. mutans clinical isolates UA140 (32), UA159 (1), T8 (33), ATCC 25175, GS5 (Kuramitsu and Ingersoll (1977) Infect Immun., 17: 330-337), and all gram-positive strains listed below (see Table 9) were grown under anaerobic conditions in brain heart infusion or Todd-Hewitt (TH) broth (Difco) overnight at 37° C. prior to use (Eckert et al. (2006) Antimicrob. Agents Chemother. 50: 3651-3657). Veillonella atypica PK1910 was grown in Veillonella medium (Egland et al. (2004) Proc. Natl. Acad. Sci., USA, 101: 16917-16922). All strains were grown in an anaerobic atmosphere of 80% N2, 10% CO2, and 10% H2.
(§2) Antibacterial growth inhibition assays were performed using sterile 96-well plates in a final volume of 100 μl, TH or Veillonella medium as described previously (Qi et al. (2005) FEMS Microbial Lett. 251: 321-326). Briefly, bacterial cells were grown overnight to an optical density at 600 nm of 0.75 to 0.8 (corresponding to 1×10^8 CFU/ml) and then diluted to 1×10^5 CFU/ml in broth and aliquoted onto plates. An appropriate volume of peptide stock solution (5 to 20 mg/ml, in water or methanol, depending on solubility) was then added to the first column of the plate to give 500 μg/ml or 512 μg/ml, followed by serial 1:2 dilutions across the plate to give wells containing peptides ranging from 500 to 1.95 μg/ml or 512 to 2 μg/ml. Methanol alone was also added to control for the effects of the solvent. The plates were then incubated at 37° C. under anaerobic conditions for 16 to 20 h without shaking, and the MIC was determined as the concentration of peptide present in the last clear well after visual inspection. Up to 5% (vol/vol) methanol was found not to be antimicrobial (data not shown). MICs were determined in triplicate for all bacteria.

[3] = tested on: V. atypica PK1910; format: cell-based, Veillonella atypica
Experimental: as §1, §2

[4] = tested on: L. casei ATCC 4646; format: cell-based, Lactobacillus casei
Experimental: as §1, §2

[5] = tested on: S. gordonii Challis DL1; format: cell-based, Streptococcus gordonii
Experimental: as §1, §2

[6] = tested on: S. mitis ATCC 903; format: cell-based, Streptococcus mitis
Experimental: as §1, §2

[7] = tested on: clinical isolates of S. mutans; format: cell-based, Streptococcus mutans; settings: for MIC / MIC (fusion library peptides) / MIC S. mutans: clinical isolates of
Experimental: as §1, §2

[8] = tested on: S. mutans UA159; test: Killing kinetics (time-kill assay); format: cell-based, Streptococcus mutans; settings: peptide 25 μg/ml, UA159
Experimental: The determination of killing kinetics for fusion and parental peptides was conducted essentially as described previously (Eckert et al. (2006) Antimicrob. Agents Chemother. 50: 1480-1488). Briefly, medium-diluted overnight UA159 cultures (0.5×10^6 to 1×10^6 CFU/ml) were challenged with peptide at a concentration of 25 μg/ml, and at the indicated time intervals (“0 min” indicates untreated samples), a 10-μL aliquot was removed and the surviving CFU were rescued by dilution (1:50) into growth medium and then spread on TH agar plates for quantitation. […] Kinetics were determined by recording the average number of surviving CFU/ml versus incubation time in the presence of peptide (all assays were independently repeated three to five times). For Table 8, time to bactericidal killing (TC) values were defined as the time required for the level of surviving CFU/ml from peptide-treated cultures to fall 3 log10 below the levels of recovered S. mutans CFU/ml from untreated samples.

[9] = tested on: S. aureus
[10] = tested on: E. faecalis
[11] = tested on: P. aeruginosa; test: MIC against P. aeruginosa; format: cell-based, Pseudomonas aeruginosa
[12] = tested on: L. casei

Substance | MIC S. sanguinis NY101 [2] [µg/mL] | MIC V. atypica PK1910 [3] [µg/mL] | MIC L. casei ATCC 4646 [4] [µg/mL] | MIC S. gordonii Challis DL1 [5] [µg/mL] | MIC S. mitis ATCC 903 [6] [µg/mL] | MIC (fusion library peptides) [7] [µg/mL] | also measured
FHFFHHFFHFFHHFKLLK [AA-5, FHFFHHFFHFFHHFKLLK] |  |  |  |  |  |  | MIC pH 4.9 [1]: 28.125 μM; MIC pH 7.4 [1]: >125 μM
FHYFWHWFHRF [AA-6, FHYFWHWFHRF] |  |  |  |  |  |  | MIC pH 4.9 [1]: >50 μM; MIC pH 7.4 [1]: 125 μM
FKKFWKWFRRF-NH2 [Peptide B-33, FKKFWKWFRRF*] | 32 | 16 | 32 | 32 | 32 |  | MIC [7]: 8 to 24 µg/mL
FKKFWKWFRRFGGGRWRWRWF-NH2 [FBRW-14, FKKFWKWFRRF-GGG-RWRWRWF*] | 16 | 8 | 8 | 32 | 64 | 4 to 16 | 
HHFFHHFHHFFHHF-NH2 [AA-1, HHFFHHFHHFFHHF*] |  |  |  |  |  |  | MIC pH 4.9 [1]: 12.5 μM; MIC pH 7.4 [1]: >125 μM
IKQLLHFFQRF-NH2 [Peptide B-38, IKQLLHFFQRF*] | 64 | 64 | 32 | 32 | 64 |  | activity against S. mutans by MIC, in words [7]: active but to a lesser degree than B-33 or B-34; MIC [7]: 24 µg/mL
IKQLLHFFQRFGGGRWRWRWF-NH2 [FBRW-15, IKQLLHFFQRF-GGG-RWRWRWF*] | 16 | 8 | 16 | 32 | 64 | 4 to 16 | 
KLLKGATFHFFHHFFHFFHHF [AA-3] |  |  |  |  |  |  | MIC pH 4.9 [1]: 6.25 μM; MIC pH 7.4 [1]: >125 μM
LKRFLKWFKRF-NH2 [Peptide B-34, LKRFLKWFKRF*] | 16 | 32 | 16 | 32 | 64 |  | MIC [7]: 8 to 24 µg/mL
LKRFLKWFKRFGGGRWRWRWF-NH2 [FBRW-16, LKRFLKWFKRF-GGG-RWRWRWF*] | 16 | 8 | 16 | 64 | 64 | 4 to 16 | 
LYHFLHWFQRF [AA-7, LYHFLHWFQRF] |  |  |  |  |  |  | MIC pH 4.9 [1]: >50 μM; MIC pH 7.4 [1]: 125 μM
RRRWWWFASASARRRWWWF-NH2 [FRW-3, RRRWWWF-ASASA-RRRWWWF*] |  |  |  |  |  | 32 | TC, time required to kill 3 log10 of recoverable CFU/ml [8]: 480 min
RRRWWWFGGGRRRWWWF-NH2 [FRW-5, RRRWWWF-GGG-RRRWWWF*] |  |  |  |  |  | 16 | TC, time required to kill 3 log10 of recoverable CFU/ml [8]: 270 min
RWRRLLKKLHHLLH-NH2 [α-11, RWRRLLKKLHHLLH*] | 16 | 4 | 16 | 16 | 32 |  | MIC [7]: 8 µg/mL
RWRRLLKKLHHLLHGGGFKKFWKWFRRF-NH2 [FBα-20, RWRRLLKKLHHLLH-GGG-FKKFWKWFRRF*] | 16 | 8 | 8 | 16 | 32 | 4 to 8 | 
RWRWRWF-NH2 [Peptide 2C-4, RWRWRWF*] | 32 | 64 | 32 | 32 | 32 |  | MIC [7]: 4 to 8 µg/mL
RWRWRWFGGGFKKFWKWFRRF-NH2 [FBRW-22, RWRWRWF-GGG-FKKFWKWFRRF*] | 8 | 8 | 8 | 16 | 64 | 4 to 8 | 
RWRWRWFGGGLKRFLKWFKRF-NH2 [FBRW-24, RWRWRWF-GGG-LKRFLKWFKRF*] | 16 | 16 | 8 | 32 | 64 | 8 | 
VIRHVWVRKLF [Peptide S3L8-27, VIRHVWVRKLF] |  |  |  |  |  |  | MIC S. aureus [9]: >125 µg/mL; MIC E. faecalis [10]: >125 µg/mL; MIC P. aeruginosa [11]: >125 µg/mL; MIC L. casei [12]: >62.5 µg/mL; MIC S. mutans [7]: 60 µg/mL
VLIRILVRVIF [Peptide S3L8-33, VLIRILVRVIF] |  |  |  |  |  |  | MIC S. aureus [9]: 125 µg/mL; MIC E. faecalis [10]: 16 µg/mL; MIC P. aeruginosa [11]: >125 µg/mL; MIC L. casei [12]: 16 µg/mL; MIC S. mutans [7]: >125 µg/mL
VLKHVIAHKRLF [Peptide S3L8-25, VLKHVIAHKRLF] |  |  |  |  |  |  | MIC S. aureus [9]: >125 µg/mL; MIC E. faecalis [10]: >125 µg/mL; MIC P. aeruginosa [11]: >125 µg/mL; MIC L. casei [12]: >62.5 µg/mL; MIC S. mutans [7]: >125 µg/mL
VLRHLFRHRIVF [Peptide S3L8-21, VLRHLFRHRIVF] |  |  |  |  |  |  | MIC S. aureus [9]: >125 µg/mL; MIC E. faecalis [10]: 93.5 µg/mL; MIC P. aeruginosa [11]: >125 µg/mL; MIC L. casei [12]: >62.5 µg/mL; MIC S. mutans [7]: 60 µg/mL
WIWKHKFLHRHFLF [Peptide S3L8-12, WIWKHKFLHRHFLF] |  |  |  |  |  |  | MIC S. aureus [9]: >125 µg/mL; MIC E. faecalis [10]: 125 µg/mL; MIC P. aeruginosa [11]: >125 µg/mL; MIC L. casei [12]: >62.5 µg/mL; MIC S. mutans [7]: 125 µg/mL
WRWRARWRWRLRWRF [Peptide S3L8-3, WRWRARWRWRLRWRF] |  |  |  |  |  |  | MIC S. aureus [9]: 16 µg/mL; MIC E. faecalis [10]: 8 µg/mL; MIC P. aeruginosa [11]: >125 µg/mL; MIC L. casei [12]: 16 µg/mL; MIC S. mutans [7]: 4 µg/mL
